The pIC50 is the negative decadic logarithm of the IC50, by convention in mol/L. Read a high pIC50 as a low IC50. As usually defined, the melting point is the temperature, or range, at which the solid turns liquid.

Structures are written as SMILES. pIC50: −log10 of the molar value. A value given as a limit tells only on which side of the number the result lay.

The values below come from patent publication US6608071B2, “Isoquinoline derivatives with angiogenesis inhibiting activity” (Novartis AG, priority 1998, dated 2003).

One data set deals with T1, Flt-1 VEGF receptor tyrosine kinase (Homo sapiens, UniProt P17948).
T1 construct: 10 ng of the kinase domain of Flt-1
T1 sequence (P17948 827-1158 limits assumed): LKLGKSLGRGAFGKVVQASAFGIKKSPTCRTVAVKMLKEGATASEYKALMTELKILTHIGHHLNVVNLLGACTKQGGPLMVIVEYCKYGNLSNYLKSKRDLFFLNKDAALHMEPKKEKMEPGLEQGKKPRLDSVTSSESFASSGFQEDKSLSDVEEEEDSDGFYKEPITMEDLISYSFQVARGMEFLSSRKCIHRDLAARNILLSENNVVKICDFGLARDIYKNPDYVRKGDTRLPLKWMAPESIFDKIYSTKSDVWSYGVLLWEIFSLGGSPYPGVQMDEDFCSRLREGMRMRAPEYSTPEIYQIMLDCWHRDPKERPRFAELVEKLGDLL
Put plainly: Test for activity against Flt-1 VEGF receptor tyrosine kinase activity. As to conditions: kinase domain of Flt-1, poly(Glu,Tyr) 4:1, 8 μM [33P]-ATP, 15 minutes at room temperature. The class given is biochemical. Here is the method:
Test for activity against VEGF receptor tyrosine kinase activity: The test is carried out using Flt-1 VEGF receptor tyrosine kinase. In detail, the procedure is as follows: 30 μl of kinase solution (10 ng of the kinase domain of Flt-1, Shibuya et al., Oncogene 5, 519-524 (1990)) in 20 mM Tris-HCl pH 7.6, 3 mM manganese dichloride (MnCl2), 3 mM magnesium chloride (MgCl2) and 3 μg/ml of poly(Glu,Tyr) 4:1 (Sigma, Buchs, Switzerland), 8 μM [^33P]-ATP (0.2 μCi/batch), 1% dimethyl sulfoxide and from 0 to 50 μM of the test compound are incubated together for 15 minutes at room temperature. The reaction is then terminated by addition of 10 μl of 0.25M ethylenediamine tetraacetate (EDTA) pH 7. An aliquot of 20 μl is connected to a vacuum using a multichannel dispenser (LAB SYSTEMS, USA) on a PVDF (=polyvinyl difluoride) Immobilon P membrane (Millipore, USA), which is incorporated in a Millipore Microtiter filter manifold. When the liquid has been removed completely, the membrane is incubated 4 times in succession, in each case for 10 minutes, with shaking, in a washing bath containing 0.5% phosphoric acid (H3PO4), and is then mounted in a Hewlett Packard TopCount Manifold and, after addition of 10 μl of Microscint® (β-scintillation counter fluid; Packard, USA), the radioactivity is, measured. IC50 values are determined by linear regression analysis of the percentage values for the inhibition of each compound at three concentrations (generally 0.01, 0.1 and 1 μM). The inhibition values (IC50 with half-maximum inhibition as compared with a control without inhibitor of formula I) found are especially in the range of from 10 nmol/liter to 100 μmol/liter, more especially from 20 to 2000 nmol/liter.
The test is carried out using Fit-1 VEGF receptor tyrosine kinase, as described above. The IC50 values obtained are shown below, insofar as they were calculated accurately: […]
`Cc1cccc(Nc2ncc(Cc3ccncc3)c3ccccc23)c1` [Example 5] showed a negative-log IC50 (pIC50) of 6.46.
Same read-out and setting: the value for `Cc1cc(C)cc(Nc2ncc(Cc3ccncc3)c3ccccc23)c1` [Example 1, 1-(3,5-Dimethylanilino)-4-[(pyridin-4-yl)-methyl]-isoquinoline] was 6.10; that for `FC(F)(F)c1cc(Nc2ncc(Cc3ccncc3)c3ccccc23)ccc1Cl` [Example 4] was under 6.00; that for `FC(F)(F)c1cc(Br)cc(Nc2ncc(Cc3ccncc3)c3ccccc23)c1` [Example 3] was under 6.00.
Still for that read-out and setting: the value for `Clc1ccc(Nc2ncc(Cc3ccncc3)c3ccccc23)cc1` [Example 2] was 6.46.

Tested on in a further data set: not given
Test: not given
Details: not given
Regarding `Cc1cc(C)cc(Nc2ncc(Cc3ccncc3)c3ccccc23)c1` [Example 1, 1-(3,5-Dimethylanilino)-4-[(pyridin-4-yl)-methyl]-isoquinoline], the melting point was in the range of 156 to 158 °C.
`Clc1cccc(CNc2ncc(Cc3ccncc3)c3ccccc23)c1` [Example 132, 1-(3-Chlorobenzylamino)-4-[(pyridin-4-yl)-methyl]-isoquinoline] had a melting point of 141 to 142 °C.
